According to US8808702B2, “Sulfide, sulfoxide and sulfone chalcone analogues, derivatives thereof and therapeutic uses thereof” (Temple University-of the Commonwealth System of Higher …, priority 2006, dated 2014):
pIC50: −log10 of the molar value. Read-outs that look alike come from different tables or passages of the source.

Key:
[1] = test system: K562 (chronic myelogenous leukaemia); assay: Effect of compounds on tumor cell lines (assay of Latham et al.), K562; format: cell-based; conditions: K562 cells, read-out: K 562 potency (IC50)
How it was run: (§1)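 K562 or DU145 cells plated at 2.5×10^4 cells/well, treated 24 h later with compound in DMSO at 1 μM to 100 μM (0.1 μM to 100 μM for one compound). Activity judged by microscopic observation after 96 h; where needed, viable cells counted by trypan blue exclusion.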

[2] = test system: DU145 (prostate cancer); assay: Effect of compounds on tumor cell lines (assay of Latham et al.), DU145; format: cell-based; conditions: DU145 cells, read-out: DU 145 potency (IC50)
How it was run: as §1

[3] = Table 1, examined 96 hours after treatment, 1 μM to 100 μM in DMSO
[4] = 96 hours after treatment, 1 μM to 100 μM

Row | SMILES | pIC50 [1, 4] | pIC50 [2, 4] | other results
1 | COc1ccc(SC(=Cc2ccc(Br)cc2)C(=O)c2ccc(Br)cc2)cc1 [Example 63] |  |  | pIC50 [1, 3]: 5.00 to 6.00; pIC50 [2, 3]: 4.30 to 4.60
2 | COc1ccc(C=C(SCc2ccccc2Cl)C(=O)c2ccc(Cl)cc2)c(OC)c1OC [Example 125] | 5.00 to 6.00 | 4.60 to 5.00 | 
3 | CCN(CC)CCNC(=O)c1c(C)[nH]c(C=C(SCc2ccc(C)cc2)C(=O)c2ccc(C(=O)O)cc2)c1C [Example 284] | 4.00 to 4.30 | 4.00 to 4.30 | 
4 | COC(=O)c1ccc(C(=O)/C(=C\c2ccc(F)c([N+](=O)[O-])c2)SCc2ccc(Br)cc2)cc1 [Example 441, (E)-methyl-4-(2-(4-bromobenzylthio)-3-(4-fluoro-3-nitrophenyl)acryloyl)benzoate] |  |  | pIC50 ([1]; Homo sapiens, Table 5, examined 96 hours after treatment, 0.1 μM to 100 μM in DMSO): ≥ 6.00; pIC50 ([2]; Homo sapiens, DU-145, Table 5, examined 96 hours after treatment, 0.1 μM to 100 μM in DMSO): ≥ 6.00
5 | Cc1ccc(SC(=Cc2ccc(Oc3ccccc3)cc2)C(=O)c2ccc(Br)cc2)cc1 [Example 103] |  |  | pIC50 [1, 3]: 4.60 to 5.00; pIC50 [2, 3]: 5.00 to 6.00
6 | Cc1ccc(CSC(=Cc2c[nH]c3ccc(Br)cc23)C(=O)c2ccc(Cl)cc2)cc1 [Example 295] | 5.00 to 6.00 | 5.00 to 6.00 | 
7 | O=C(O)c1ccc(C(=O)C(=Cc2ccc(Br)c([N+](=O)[O-])c2)SCc2ccc(Cl)cc2Cl)cc1 [Example 299] | ≥ 6.00 | 5.00 to 6.00 | 
8 | Cc1cc(C)cc(C=C(SCc2ccc(Br)cc2)C(=O)c2ccc(Cl)cc2)c1 [Example 149] | 4.60 to 5.00 | 4.60 to 5.00 | 
9 | O=C(C(=Cc1ccc(C(F)(F)F)cc1)SCc1ccc(Cl)cc1)c1ccc(Cl)cc1 [Example 327] | 5.00 to 6.00 | 5.00 to 6.00 | 
10 | Cc1ccc(CSC(=Cc2c(O)cc(O)cc2O)C(=O)c2ccc(Cl)cc2)cc1 [Example 272] | 4.00 to 4.30 | 4.00 to 4.30 | 
11 | O=C(C(=Cc1c(O)cc(O)cc1O)Sc1ccccc1Br)c1ccc(Br)cc1 [Example 4] |  |  | pIC50 [1, 3]: < 4.00; pIC50 [2, 3]: < 4.00
12 | NS(=O)(=O)c1ccc(C(=O)/C(=C\c2ccc(F)c([N+](=O)[O-])c2)SCc2ccc(F)cc2)cc1 [Example 343] | 5.00 to 6.00 | 5.00 to 6.00 | 
13 | CN(C)c1ccc(C=C(SCc2ccc(Cl)cc2)C(=O)c2ccc(Br)cc2)cc1 [Example 208] | 5.00 to 6.00 | 4.60 to 5.00 | 
14 | Cc1ccc(CSC(=Cc2ccc(O)cc2)C(=O)c2ccc(Cl)cc2)cc1 [Example 292] | 5.00 to 6.00 | 4.60 to 5.00 | 
15 | O=C(C(=Cc1ccc(O)c([N+](=O)[O-])c1)Sc1ccc(Br)cc1)c1c(F)c(F)c(F)c(F)c1F [Example 42] |  |  | pIC50 [1, 3]: 5.00 to 6.00; pIC50 [2, 3]: 5.00 to 6.00
16 | O=C(O)c1ccc(C(=O)/C(=C\c2ccc(F)c([N+](=O)[O-])c2)SCc2ccc(C(F)(F)F)cc2)cc1 [Example 351] | ≥ 6.00 | 5.00 to 6.00 | 
17 | COc1ccc(C=C(SCc2ccc(Cl)cc2)C(=O)c2ccc(Br)cc2)cc1O [Example 203] | 5.00 to 6.00 | 5.00 to 6.00 | 
18 | O=C(C(=Cc1ccc[nH]1)SCc1ccc(Cl)cc1)c1ccc(Cl)cc1 [Example 201] | 4.60 to 5.00 | 4.30 to 4.60 | 
19 | CN(C)c1ccc(C=C(SCc2ccccc2Cl)C(=O)c2ccc(Cl)cc2)cc1 [Example 127] | 4.00 to 4.30 | < 4.00 | 
20 | CCOC(=O)c1c(C)[nH]c(/C=C(/SCc2ccc(Br)cc2)C(=O)c2ccc(Br)cc2)c1C [Example 170] | 4.30 to 4.60 | 4.00 to 4.30 | 
21 | O=C(C(=Cc1ccc(Cl)cc1)SCc1ccc(Cl)cc1)c1ccccc1Cl [Example 217] | 5.00 to 6.00 | 4.00 to 4.30 | 
22 | O=C(C(=Cc1ccc(Cl)cc1)SCc1ccccc1Cl)c1ccc(Cl)cc1 [Example 130] | 5.00 to 6.00 | 4.60 to 5.00 | 
23 | COc1ccccc1C=C(SCc1ccc(Cl)cc1)C(=O)c1ccc(Br)cc1 [Example 198] | 4.60 to 5.00 | 5.00 to 6.00 | 
24 | COc1ccc(C(=O)/C(=C\c2ccc(O)c([N+](=O)[O-])c2)SCc2ccc(Br)cc2)cc1 [Example 183] | 4.60 to 5.00 | 4.60 to 5.00 | 
25 | COc1ccc(C=C(Sc2ccc(Br)cc2)C(=O)c2ccc(Br)cc2)cc1 [Example 47] |  |  | pIC50 [1, 3]: 5.00 to 6.00; pIC50 [2, 3]: 4.30 to 4.60
26 | O=C(C(=Cc1ccc(Br)cc1)SCc1ccc(Cl)cc1)c1ccc(Br)cc1 [Example 214] | 5.00 to 6.00 | 5.00 to 6.00 | 
27 | O=C(C(=Cc1ccc(F)cc1)Sc1ccc(Br)cc1)c1ccc(Br)cc1 [Example 40] |  |  | pIC50 [1, 3]: 5.00 to 6.00; pIC50 [2, 3]: 4.60 to 5.00
28 | O=C(C(=Cc1ccc(Br)c(O)c1)Sc1ccc(Br)cc1)c1ccc(Br)cc1 [Example 32] |  |  | pIC50 [1, 3]: 5.00 to 6.00; pIC50 [2, 3]: 5.00 to 6.00
29 | Cc1ccc(SC(=Cc2c[nH]c3ccc(Cl)cc23)C(=O)c2ccc(Br)cc2)cc1 [Example 107] |  |  | pIC50 [1, 3]: 5.00 to 6.00; pIC50 [2, 3]: 5.00 to 6.00
30 | O=C(C(=Cc1ccc(Cl)cc1)SCc1ccc(Cl)cc1)c1ccc(Cl)cc1 [Example 324] | 5.00 to 6.00 | 4.60 to 5.00 | 
